Assay results: ChEMBL document CHEMBL5465560, “Selectivity Literature for EUbOPEN Chemogenomic Library” (2024)

What was measured:
[1] = target: Serine/threonine-protein kinase tousled-like 2 (Homo sapiens) (UniProt Q86UE8); assay: Selectivity interaction (KinomeScan (DiscoverX)) EUB0000607a TLK2; conditions: at 10 µM
[2] = target: Serine/threonine-protein kinase PAK 3 (Homo sapiens) (UniProt O75914); assay: Selectivity interaction (KinomeScan (DiscoverX)) EUB0000607a PAK3; conditions: at 10 µM
[3] = target: Cyclin-dependent kinase 16 (Homo sapiens) (UniProt Q00536); assay: Selectivity interaction (ActivX KiNativ screen (kinase selectivity in THP-1 cell lysates)) EUB0000639a CDK16; format: subcellular; conditions: lysate, at 0.2 µM
Cyclin-dependent kinase 16 (Homo sapiens), sequence (Q00536 whole entry): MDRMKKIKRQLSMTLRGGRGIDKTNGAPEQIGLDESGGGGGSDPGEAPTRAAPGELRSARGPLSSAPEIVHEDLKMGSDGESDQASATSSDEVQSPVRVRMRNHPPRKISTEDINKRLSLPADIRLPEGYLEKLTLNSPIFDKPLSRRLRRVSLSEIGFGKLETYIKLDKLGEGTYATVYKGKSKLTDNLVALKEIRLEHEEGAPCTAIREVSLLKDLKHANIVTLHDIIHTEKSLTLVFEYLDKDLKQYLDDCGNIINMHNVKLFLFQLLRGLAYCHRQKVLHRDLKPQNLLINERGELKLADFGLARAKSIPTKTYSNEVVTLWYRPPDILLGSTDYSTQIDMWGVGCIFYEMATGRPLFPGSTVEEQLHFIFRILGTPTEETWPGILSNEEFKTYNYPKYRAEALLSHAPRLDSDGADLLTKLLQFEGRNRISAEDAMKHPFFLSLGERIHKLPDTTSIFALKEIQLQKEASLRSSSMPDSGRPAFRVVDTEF

[4] = target: Tyrosine-protein kinase JAK1 (Homo sapiens, UniProt P23458); assay: Selectivity interaction (ProQinase) EUB0000171b JAK1
Tyrosine-protein kinase JAK1, sequence (P23458 whole entry): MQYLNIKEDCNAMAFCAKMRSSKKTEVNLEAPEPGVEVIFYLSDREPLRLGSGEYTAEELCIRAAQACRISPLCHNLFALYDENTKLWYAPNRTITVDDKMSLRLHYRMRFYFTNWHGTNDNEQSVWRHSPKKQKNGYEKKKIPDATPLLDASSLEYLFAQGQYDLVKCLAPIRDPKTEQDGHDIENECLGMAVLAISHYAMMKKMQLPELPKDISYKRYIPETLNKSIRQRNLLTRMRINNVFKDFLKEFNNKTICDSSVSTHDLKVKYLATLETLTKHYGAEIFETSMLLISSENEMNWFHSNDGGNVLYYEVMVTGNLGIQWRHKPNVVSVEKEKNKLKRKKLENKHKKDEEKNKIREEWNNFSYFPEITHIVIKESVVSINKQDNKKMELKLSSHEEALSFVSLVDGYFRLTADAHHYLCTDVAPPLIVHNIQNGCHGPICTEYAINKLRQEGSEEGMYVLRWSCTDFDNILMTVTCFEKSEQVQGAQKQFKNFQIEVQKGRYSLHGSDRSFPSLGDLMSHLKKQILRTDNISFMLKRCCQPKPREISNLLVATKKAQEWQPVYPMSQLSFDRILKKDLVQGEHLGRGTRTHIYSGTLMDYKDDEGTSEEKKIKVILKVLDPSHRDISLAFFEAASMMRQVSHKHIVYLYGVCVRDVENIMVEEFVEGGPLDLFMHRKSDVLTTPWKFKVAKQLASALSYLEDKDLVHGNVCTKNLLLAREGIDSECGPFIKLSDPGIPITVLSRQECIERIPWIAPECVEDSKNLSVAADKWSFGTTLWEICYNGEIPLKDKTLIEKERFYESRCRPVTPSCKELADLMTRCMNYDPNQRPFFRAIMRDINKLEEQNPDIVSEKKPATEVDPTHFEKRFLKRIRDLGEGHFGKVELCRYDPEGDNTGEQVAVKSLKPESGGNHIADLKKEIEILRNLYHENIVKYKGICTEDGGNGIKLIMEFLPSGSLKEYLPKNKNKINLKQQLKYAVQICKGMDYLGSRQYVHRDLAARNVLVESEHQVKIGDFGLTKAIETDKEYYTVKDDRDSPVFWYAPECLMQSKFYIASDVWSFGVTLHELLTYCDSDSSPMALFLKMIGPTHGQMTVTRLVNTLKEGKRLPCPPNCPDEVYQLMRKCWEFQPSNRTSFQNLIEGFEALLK

[5] = target: Serine/threonine-protein kinase 38-like (Homo sapiens) (UniProt Q9Y2H1); assay: Selectivity interaction (KinomeScan (DiscoverX)) EUB0000695a STK38L; conditions: at 100 nM
Serine/threonine-protein kinase 38-like (Homo sapiens), sequence (Q9Y2H1 2-464 limits assumed): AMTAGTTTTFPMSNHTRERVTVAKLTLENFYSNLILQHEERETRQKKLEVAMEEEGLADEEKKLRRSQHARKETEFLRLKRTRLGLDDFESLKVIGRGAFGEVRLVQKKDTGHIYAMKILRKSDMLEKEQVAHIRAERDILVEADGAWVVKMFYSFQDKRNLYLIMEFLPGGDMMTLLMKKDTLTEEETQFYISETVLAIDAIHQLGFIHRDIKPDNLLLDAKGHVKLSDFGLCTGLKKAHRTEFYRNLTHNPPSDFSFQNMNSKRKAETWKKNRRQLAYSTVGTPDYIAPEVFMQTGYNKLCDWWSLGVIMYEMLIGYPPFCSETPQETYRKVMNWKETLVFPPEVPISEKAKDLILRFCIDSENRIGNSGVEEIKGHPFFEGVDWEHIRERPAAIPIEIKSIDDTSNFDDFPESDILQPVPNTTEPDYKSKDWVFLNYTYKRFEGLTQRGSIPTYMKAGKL

[6] = target: Fibroblast growth factor receptor 2 (Homo sapiens) (UniProt P21802); assay: Selectivity interaction (Kinase panel (DSF assay)) EUB0001559a FGFR2
Fibroblast growth factor receptor 2 (Homo sapiens), sequence (P21802 22-821 limits assumed): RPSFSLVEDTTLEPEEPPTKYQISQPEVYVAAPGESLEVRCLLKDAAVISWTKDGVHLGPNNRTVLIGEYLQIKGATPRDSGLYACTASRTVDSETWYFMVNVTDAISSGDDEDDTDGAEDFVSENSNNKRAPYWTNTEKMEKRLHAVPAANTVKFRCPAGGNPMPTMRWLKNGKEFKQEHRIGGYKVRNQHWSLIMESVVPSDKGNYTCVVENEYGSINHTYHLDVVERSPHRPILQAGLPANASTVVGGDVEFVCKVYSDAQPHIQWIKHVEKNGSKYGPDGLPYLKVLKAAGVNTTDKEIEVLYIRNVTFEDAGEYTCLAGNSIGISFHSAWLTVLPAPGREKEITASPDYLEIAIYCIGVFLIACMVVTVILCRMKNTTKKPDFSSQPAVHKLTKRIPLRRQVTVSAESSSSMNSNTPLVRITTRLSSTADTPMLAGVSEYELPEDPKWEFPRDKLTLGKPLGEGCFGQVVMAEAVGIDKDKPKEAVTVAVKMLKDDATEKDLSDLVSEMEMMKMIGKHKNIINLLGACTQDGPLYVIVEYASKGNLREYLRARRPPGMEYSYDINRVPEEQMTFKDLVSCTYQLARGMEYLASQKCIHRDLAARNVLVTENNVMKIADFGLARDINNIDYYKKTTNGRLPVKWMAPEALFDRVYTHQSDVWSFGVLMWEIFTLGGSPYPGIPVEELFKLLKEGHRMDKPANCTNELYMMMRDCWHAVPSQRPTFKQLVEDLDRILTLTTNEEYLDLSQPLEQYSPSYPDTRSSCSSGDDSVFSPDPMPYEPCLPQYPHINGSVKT

[7] = target: T1, Serine/threonine-protein kinase 36 (Homo sapiens) (UniProt Q9NRP7); assay: Selectivity interaction (KinomeScan (DiscoverX)) EUB0001049a STK36; conditions: at 1 µM
T1 sequence (whole entry): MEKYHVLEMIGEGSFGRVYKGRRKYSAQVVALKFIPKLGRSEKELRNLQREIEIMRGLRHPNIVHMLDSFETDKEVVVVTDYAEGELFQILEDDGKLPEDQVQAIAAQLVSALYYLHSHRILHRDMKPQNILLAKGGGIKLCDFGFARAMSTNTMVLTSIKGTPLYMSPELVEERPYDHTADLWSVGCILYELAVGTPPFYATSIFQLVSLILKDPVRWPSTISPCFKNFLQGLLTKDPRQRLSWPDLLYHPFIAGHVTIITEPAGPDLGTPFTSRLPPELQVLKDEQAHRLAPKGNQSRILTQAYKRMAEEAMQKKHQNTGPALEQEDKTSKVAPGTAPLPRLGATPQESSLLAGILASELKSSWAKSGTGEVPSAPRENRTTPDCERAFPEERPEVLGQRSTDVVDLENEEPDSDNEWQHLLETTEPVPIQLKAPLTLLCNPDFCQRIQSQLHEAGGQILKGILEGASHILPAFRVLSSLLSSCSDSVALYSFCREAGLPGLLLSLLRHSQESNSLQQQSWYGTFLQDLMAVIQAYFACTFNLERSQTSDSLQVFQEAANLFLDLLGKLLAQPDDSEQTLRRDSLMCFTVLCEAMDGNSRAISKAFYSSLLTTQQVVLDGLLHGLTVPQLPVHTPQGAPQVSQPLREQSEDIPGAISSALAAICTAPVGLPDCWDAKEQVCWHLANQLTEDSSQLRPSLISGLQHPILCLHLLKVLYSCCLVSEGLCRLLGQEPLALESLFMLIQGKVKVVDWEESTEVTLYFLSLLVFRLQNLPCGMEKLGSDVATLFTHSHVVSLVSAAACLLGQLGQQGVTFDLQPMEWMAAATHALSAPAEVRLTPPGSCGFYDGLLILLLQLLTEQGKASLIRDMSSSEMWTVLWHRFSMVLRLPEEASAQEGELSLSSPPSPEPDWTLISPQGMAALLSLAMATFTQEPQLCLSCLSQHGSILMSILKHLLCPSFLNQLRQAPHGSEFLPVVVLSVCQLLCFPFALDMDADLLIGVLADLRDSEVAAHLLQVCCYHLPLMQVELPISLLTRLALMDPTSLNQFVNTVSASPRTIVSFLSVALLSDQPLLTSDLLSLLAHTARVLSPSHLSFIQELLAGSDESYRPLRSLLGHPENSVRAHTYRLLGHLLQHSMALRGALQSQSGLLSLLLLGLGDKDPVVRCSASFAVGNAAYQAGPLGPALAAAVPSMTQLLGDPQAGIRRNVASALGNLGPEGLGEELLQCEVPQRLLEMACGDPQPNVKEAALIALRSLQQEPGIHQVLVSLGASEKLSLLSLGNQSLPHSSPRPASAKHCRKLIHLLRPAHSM

[8] = target: T2, Muscarinic acetylcholine receptor M1 (Homo sapiens) (UniProt P11229); assay: Selectivity interaction (Panel of kinases, GPCRs, ion channels and transporters (enzymatic assay)) EUB0000223bCl CHRM1
T2 sequence (whole entry): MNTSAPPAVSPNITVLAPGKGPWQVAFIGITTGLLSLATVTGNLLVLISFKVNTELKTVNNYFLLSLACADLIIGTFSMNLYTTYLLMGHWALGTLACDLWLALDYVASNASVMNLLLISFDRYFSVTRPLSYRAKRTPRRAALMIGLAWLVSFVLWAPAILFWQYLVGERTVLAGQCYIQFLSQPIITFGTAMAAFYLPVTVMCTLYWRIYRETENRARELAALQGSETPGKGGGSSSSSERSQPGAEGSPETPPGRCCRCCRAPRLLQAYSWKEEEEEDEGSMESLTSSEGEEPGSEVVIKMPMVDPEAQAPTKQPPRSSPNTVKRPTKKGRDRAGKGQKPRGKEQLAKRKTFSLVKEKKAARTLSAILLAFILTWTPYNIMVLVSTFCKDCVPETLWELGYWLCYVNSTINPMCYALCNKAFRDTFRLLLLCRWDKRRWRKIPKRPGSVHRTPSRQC

[9] = target: Eukaryotic translation initiation factor 2-alpha kinase 1 (Homo sapiens) (UniProt Q9BQI3); assay: Selectivity interaction (KinomeScan (DiscoverX)) EUB0000655a EIF2AK1; conditions: at 10 µM
[10] = target: Receptor tyrosine-protein kinase erbB-4 (Homo sapiens, UniProt Q15303); assay: Selectivity interaction (KinomeScan (DiscoverX)) EUB0001079a ERBB4; conditions: at 1 µM
Receptor tyrosine-protein kinase erbB-4, sequence (Q15303 whole entry): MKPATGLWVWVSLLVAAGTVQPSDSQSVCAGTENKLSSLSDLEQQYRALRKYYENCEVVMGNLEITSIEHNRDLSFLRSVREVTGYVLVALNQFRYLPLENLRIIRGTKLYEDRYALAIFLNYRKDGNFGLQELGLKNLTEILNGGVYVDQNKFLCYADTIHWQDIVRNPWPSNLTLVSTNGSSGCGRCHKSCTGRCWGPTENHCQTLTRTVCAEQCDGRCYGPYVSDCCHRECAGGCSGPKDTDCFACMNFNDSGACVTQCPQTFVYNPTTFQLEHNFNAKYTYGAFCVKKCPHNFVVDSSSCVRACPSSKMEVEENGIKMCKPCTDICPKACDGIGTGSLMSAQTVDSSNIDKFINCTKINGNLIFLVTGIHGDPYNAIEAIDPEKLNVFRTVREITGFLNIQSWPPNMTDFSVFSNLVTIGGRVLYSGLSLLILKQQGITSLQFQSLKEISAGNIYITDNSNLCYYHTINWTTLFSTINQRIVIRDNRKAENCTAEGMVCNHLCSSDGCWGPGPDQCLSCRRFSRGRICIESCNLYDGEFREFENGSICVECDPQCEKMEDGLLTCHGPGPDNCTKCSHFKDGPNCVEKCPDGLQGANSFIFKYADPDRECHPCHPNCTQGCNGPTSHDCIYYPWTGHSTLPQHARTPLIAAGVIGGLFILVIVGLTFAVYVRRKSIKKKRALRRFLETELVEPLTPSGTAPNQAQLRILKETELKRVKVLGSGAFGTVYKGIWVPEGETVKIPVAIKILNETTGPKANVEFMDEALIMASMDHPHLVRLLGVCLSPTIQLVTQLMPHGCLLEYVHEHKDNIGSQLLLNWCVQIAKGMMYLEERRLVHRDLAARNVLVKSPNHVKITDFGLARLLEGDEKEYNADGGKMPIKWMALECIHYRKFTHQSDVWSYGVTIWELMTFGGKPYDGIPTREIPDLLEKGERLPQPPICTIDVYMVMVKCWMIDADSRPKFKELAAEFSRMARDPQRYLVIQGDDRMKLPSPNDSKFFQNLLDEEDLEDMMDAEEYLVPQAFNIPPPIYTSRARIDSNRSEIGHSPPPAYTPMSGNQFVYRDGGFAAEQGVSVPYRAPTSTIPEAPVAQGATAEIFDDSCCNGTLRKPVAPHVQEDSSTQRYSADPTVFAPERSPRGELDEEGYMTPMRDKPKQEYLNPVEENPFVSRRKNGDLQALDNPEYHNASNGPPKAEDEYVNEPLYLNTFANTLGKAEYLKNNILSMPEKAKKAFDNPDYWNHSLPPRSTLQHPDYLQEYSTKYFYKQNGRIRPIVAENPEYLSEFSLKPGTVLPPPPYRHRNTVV

[11] = target: Mitogen-activated protein kinase 14 (Homo sapiens, UniProt Q16539); assay: Selectivity interaction (Kinase panel (KiNativ target engagement assay in Jurkat cells)) EUB0001635a MAPK14; format: cell-based; conditions: Selectivity number of off-targets 0.0, Selectivity number of targets 233.0, Source Knowledge https://www.sciencedirect.com/science/article/pii/S2451945619300674?via%3Dihub, at 1 µM
[12] = target: STE20/SPS1-related proline-alanine-rich protein kinase (Homo sapiens) (UniProt Q9UEW8); assay: Selectivity interaction (Kinase panel (KiNativ target engagement assay in Jurkat cells)) EUB0001635a STK39; format: cell-based; conditions: Selectivity number of off-targets 0.0, Selectivity number of targets 233.0, Source Knowledge https://www.sciencedirect.com/science/article/pii/S2451945619300674?via%3Dihub, at 1 µM
[13] = target: Cyclin-dependent kinase-like 3 (Homo sapiens) (UniProt Q8IVW4); assay: Selectivity interaction (KinomeScan (DiscoverX)) EUB0000618a CDKL3; conditions: at 10 µM
Cyclin-dependent kinase-like 3 (Homo sapiens), sequence (Q8IVW4 whole entry, looked up): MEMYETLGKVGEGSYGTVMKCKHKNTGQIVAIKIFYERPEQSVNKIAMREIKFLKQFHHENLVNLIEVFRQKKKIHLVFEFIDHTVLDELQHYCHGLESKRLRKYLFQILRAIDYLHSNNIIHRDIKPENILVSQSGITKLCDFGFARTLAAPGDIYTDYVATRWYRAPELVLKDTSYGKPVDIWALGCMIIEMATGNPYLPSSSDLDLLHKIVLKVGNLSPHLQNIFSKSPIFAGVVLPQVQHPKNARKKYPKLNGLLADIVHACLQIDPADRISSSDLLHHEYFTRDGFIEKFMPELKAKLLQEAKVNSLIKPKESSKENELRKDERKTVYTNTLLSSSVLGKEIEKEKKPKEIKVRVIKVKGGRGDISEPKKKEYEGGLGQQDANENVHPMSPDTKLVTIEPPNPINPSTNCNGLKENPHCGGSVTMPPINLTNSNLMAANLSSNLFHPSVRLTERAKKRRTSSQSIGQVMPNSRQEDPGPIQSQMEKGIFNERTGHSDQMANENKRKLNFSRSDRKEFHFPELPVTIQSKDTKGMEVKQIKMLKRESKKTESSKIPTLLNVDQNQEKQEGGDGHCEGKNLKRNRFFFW

[14] = target: Ephrin type-A receptor 5 (Homo sapiens) (UniProt P54756); assay: Selectivity interaction (KinomeScan (DiscoverX)) EUB0000618a EPHA5; conditions: at 10 µM
[15] = target: Calcium/calmodulin-dependent protein kinase type II subunit gamma (Homo sapiens) (UniProt Q13555); assay: Selectivity interaction (ActivX KiNativ screen (ex vivo kinase selectivity in human PBMCs)) EUB0001619a CAMK2G; format: cell-based; conditions: PBMC, at 1 µM

Compound `CNC(=O)Nc1ccc(-c2nc(N3CC4CCC(C3)O4)c3cnn(C4CCC5(CC4)OCCO5)c3n2)cc1` has a % of control [1] of 100% and a % of control [2] of 99%.
Work on `CC[C@@H]1[C@H](F)C(=O)N[C@@H]1COc1nccc2cc(C(N)=O)c(OC)cc12` [ZIMLOVISERTIB] yielded a % of inhibition [3] of -0.8%.
`C=CC(=O)Nc1cccc(C(=O)Nc2ccc(Nc3cc(-c4[nH]c(SC)nc4C)ccn3)cc2)c1` showed a % of control ([4]; at 1 µM) of 98% and a % of control ([4]; at 5 µM) of 96%.
`Cc1cc(F)c(C(=O)Nc2cccc(-c3nncn3C(C)C)n2)cc1-n1cnc(C2CC2)c1` gave a % of control [5] of 100%.
`CN(C(=O)c1cnn2cccnc12)c1cc2c(cc1N1CCOCC1)C(=O)N(C[C@@H](F)C(C)(C)O)C2` was tested, and the dTM [6] was 0.3 K.
Compound `COc1cc(Nc2nc(C)cc(-c3cnn4nc(OC)ccc34)n2)cc(C(F)(F)F)c1` has a % of control [7] of 99%.
`COc1cc(C(=O)N2CC[C@@H](O)[C@@H](N)C2)cc2nc(-c3cc4ccccc4n3CC3CC3)n(C)c12` was tested, and the pXC50 [8] was 5.3 M.
`CN(C)CCOc1ccc(-c2nc(-c3ccncc3)c(-c3ccc4c(c3)CC/C4=N\O)[nH]2)cc1` was tested, and the % of control [9] was 58%.
For `Nc1cnc(N2CCc3cc(S(=O)(=O)Nc4c(F)cc(Cl)cc4F)cc(N4CCCC4=O)c32)nc1` [TP-020n], the % of control [10] was 100%.
`C=CC(=O)Nc1ccc(C(=O)Nc2[nH]nc3c2CN(C(=O)N[C@H](CN(C)C)c2ccccc2)C3(C)C)cc1` was tested, and the % of engagement [11] was -12.8% and the % of engagement [12] was 11.5%.
In the case of `O[C@H]1CC[C@H](Nc2ncc3nc(Nc4c(F)cc(F)cc4F)n([C@H]4CCOC4)c3n2)CC1`, the % of control [13] is reported as 86% and the % of control [14] is reported as 100%.
For `N#Cc1cccc(-c2c[nH]c3ncnc(N4CCOCC4)c23)c1`, the % of inhibition [15] was 3%.
